According to US11882828B2, “Mosquito vector control compositions, methods and products utilizing same” (priority 2015, dated 2024):

How the values were obtained:
Anopheles stephensi [1] = assay: whole plant or invertebrate; settings: Anopheles stephensi, 48 h
Protocol: (§1) The individual wells of six (6) well tissue culture plates were treated with 250 μl of an ethanol solution containing a test compound at a defined concentration. Once the deposits were dry, ten non-blood fed adult female Aedes aegypti or Anopheles stephensi (each between two to five day old) were added to each well, and sustained with a 10% sucrose solution in a cotton wool plug.
(§2) Assessment of the mortality was carried out at 48 hours.
(§3) Each treatment was replicated twice, with the mean mortality recorded.

Aedes aegypti [2] = assay: whole plant or invertebrate; settings: Aedes aegypti, 48 h
Protocol: as §1, §2, §3

Anopheles stephensi [3] = assay: Example B7: evaluation of insecticide impregnated polymer surfaces; type: in vivo; settings: AI content 2 wt %, after one hour
From the text: (§4) Preparation of polymeric sheets: Certain methoxyacrylate were Impregnated into three polymers: LDPE (low density polyethylene), HDPE (high density polyethylene) and PP (polypropylene) in different concentrations by mixing the respective polymer with a compound at high temperatures and the resultant polymeric material were then mould into thin discs or plaques.
(§5) Twenty four hours prior to the relevant assessment intervals, three to five day old non-blood fed adult mosquitoes were taken from the culture and lightly anaesthetised with carbon dioxide. Ten females were selected and placed in a 250 ml plastic cup, retained with a net lid, provided with a 10% sucrose solution soaked in a cotton wool bung and held under culturing environmental conditions.
(§6) After twenty four hours, impregnated polymer sheets (measuring about 150 mm in diameter and about 0.1 mm in thickness) were removed from storage and wrapped around the glazed side of an 11 cm ceramic tile and held in place with an elastic band. A cup of the pre-selected mosquitoes were again lightly anaesthetised with carbon dioxide and transferred from the holding cup to the base of a 9 cm plastic Petri dish. The relevant impregnated polymer sheet was placed over the Petri dish and held in place with an elastic band. Once the mosquitoes had recovered from the anaesthetic, ca. 1 minute, the impregnated polymer sheet was placed on a holding rack, such that treated side was at an angle of […] to the horizontal.
(§7) After one hour an assessment of mosquito knockdown was made. A mosquito was said to be knocked down if it was unable to right itself once it had fallen over. The mosquitoes were lightly anaesthetised again, and removed from the Petri dish exposure chamber and returned to the holding cups. The mosquitoes were supplied with a 10% sucrose solution soaked in a cotton wool bung and held under culturing environmental conditions. An assessment of mortality was made 24 hours after exposure. A mosquito was said to be dead if it is unable to right itself once it had fallen over.

Aedes aegypti [4] = assay: as above; type: in vivo; settings: AI content 2 wt %, polymer 4 to 6 weeks old, after one hour
From the text: as §4, §5, §6, §7

An. Arabiensis Ndjamina = assay: Example B4: cross resistance study, 6-well plate; type: in vivo; settings: for Knockdown: 2.00 ppm, after 60 minutes, Ndjamina; for mortality at 2 ppm: Anopheles arabiensis, 24 h
Protocol: (§8) In each study, a set of plates were infested with a known insecticide susceptible strain of mosquitoes from the same genera as the resistant strains.
(§9) Assessment of the knockdown after 60 minutes and mortality after 24 hours was carried out. Each treatment was replicated a minimum of four times, with the mean knockdown or mortality recorded.
(§10) A comparison of the knockdown and mortality of the resistant strain of mosquitoes was made to that of the susceptible to identify evidence of cross resistance.

An. stephensi [5] = assay: Example B4: cross resistance study, 6-well plate; type: in vivo; settings: for Knockdown: 2.00 ppm, after 60 minutes, An. stephensi; for mortality at 2 ppm: Anopheles stephensi, 24 h
Protocol: as §8, §9, §10

An. Gambiae Kisumu sus [6] = assay: Example B4: cross resistance study, 6-well plate; type: in vivo; settings: for Knockdown: 2.00 ppm, after 60 minutes, Kisumu sus; for mortality at 2 ppm: Anopheles gambiae, 24 h
Protocol: as §8, §9, §10

Ae. Aegypti New Orleans = assay: Example B4: cross resistance study, 6-well plate; type: in vivo; settings: for Knockdown: 2.00 ppm, after 60 minutes, New Orleans; for mortality at 2 ppm: Aedes aegypti, 24 h
Protocol: as §8, §9, §10

An. Gambiae Tiassalé [7] = assay: Example B4: cross resistance study, 6-well plate; type: in vivo; settings: for Knockdown: 2.00 ppm, after 60 minutes, Tiassalé; for mortality at 2 ppm: Anopheles gambiae, 24 h
Protocol: as §8, §9, §10

Ae. aegypti Caymon = assay: Example B4: cross resistance study, 6-well plate; type: in vivo; settings: for Knockdown: 2.00 ppm, after 60 minutes, Caymon; for mortality at 2 ppm: Aedes aegypti, 24 h
Protocol: as §8, §9, §10

An. Gambiae Kisumu rdl = assay: Example B4: cross resistance study, 6-well plate; type: in vivo; settings: for Knockdown: 2.00 ppm, after 60 minutes, Kisumu rdl; for mortality at 2 ppm: Anopheles gambiae, 24 h
Protocol: as §8, §9, §10

An. Arabiensis Moz sus = assay: Example B4: cross resistance study, 6-well plate; type: in vivo; settings: for Knockdown: 2.00 ppm, after 60 minutes, Moz sus; for mortality at 2 ppm: Anopheles arabiensis, 24 h
Protocol: as §8, §9, §10

An. stephensi [8] = assay: Example B5: bottle based cross resistance study (CDC bottle assay); type: in vivo; settings: for Knockdown (%) at 15 mins / Knockdown (%) at 60 mins: 20 ppm, bottle, An. stephensi; for mortality at 20 ppm: Anopheles stephensi
Protocol: (§11) Based on the “CDC bottle assay” (described at http://www.cdc.gov/malaria/resources/pdf/fsp/ir_manual/ir_cdc_bioassay_en.pdf) 1 ml of ethanol containing a test compound at a defined concentration was added to a 250 ml glass bottle and the bottles were placed on a rolling table to coat the inner surfaces as the solvent evaporated. Once dry, twenty five non-blood fed adult female mosquitoes of the appropriate species and strains (each three day old) were aspirated from the stock culture and gently blown into the exposure bottles. The lid of the bottle was replaced and the bottle placed upright out of direct sun light under standard culture conditions, nominally 28C and 60-80% relative humidity.
(§12) A stopwatch was started, and the assessment of the knock-down were made after 15 minutes and 60 minutes. A mosquito was said to be knocked down if it was unable to stand, following the CDC definition. The bottles were replaced in an upright position when not being assessed.
(§13) After one hour the mosquitoes were carefully removed from the bottle with an aspirator and placed in a recovery cup. The mosquitoes were supplied with a 10% sucrose solution on a cotton wool bung, and stored under culture conditions. Assessments of the mortality were made after 24 hours.
(§14) Each treatment was replicated a minimum of four times, with the mean knockdown or mortality recorded. In each study, a set of bottles was infested with a known insecticide susceptible strain of mosquitoes from the same genera as the resistant strains.

An. Gambiae Kisumu sus [9] = assay: as above; type: in vivo; settings: for Knockdown (%) at 15 mins / Knockdown (%) at 60 mins: 20 ppm, bottle, Kisumu sus; for mortality at 20 ppm: Anopheles gambiae
Protocol: as §11, §12, §13, §14

An. Gambiae Tiassalé [10] = assay: as above; type: in vivo; settings: for Knockdown (%) at 15 mins / Knockdown (%) at 60 mins: 20 ppm, bottle, Tiassalé; for mortality at 20 ppm: Anopheles gambiae
Protocol: as §11, §12, §13, §14

[11] = system: Aedes aegypti (Yellow fever mosquito); assay: whole plant or invertebrate; settings: Aedes aegypti; for pest or weed control at 20 ppm: 1 h, read-out: Knockdown; for mortality at 20 ppm: 48 h
Protocol: […] Once the deposits were dry, five non-blood fed adult female Aedes aegypti (between two to five days old) were added to each well, and sustained with a 10% sucrose solution in a cotton wool plug. Assessment of the knockdown after 1 hour, and mortality after 48 hours was carried out.
(§15) In case of multiple tests, the mean value is reported.

[12] = system: Anopheles stephensi (Indian malaria mosquito); assay: whole plant or invertebrate; settings: Anopheles stephensi; for pest or weed control at 20 ppm: 1 h, read-out: Knockdown; for mortality at 20 ppm: 48 h
Protocol: […] Once the deposits were dry, five non-blood fed adult female Anopheles stephensi (between two to five days old) were added to each well, and sustained with a 10% sucrose solution in a cotton wool plug. Assessment of the knockdown after 1 hour, and mortality after 48 hours was carried out.
as §15

SMILES | mortality at 5 ppm (Anopheles stephensi [1]) [%] | mortality at 5 ppm (Aedes aegypti [2]) [%] | knock-down (Anopheles stephensi [3]; HDPE, polymer 4 to 6 weeks old) [%] | knock-down (Anopheles stephensi [3]; HDPE, polymer 6 to 8 weeks old) [%] | knock-down (Anopheles stephensi [3]; LDPE, polymer 4 to 6 weeks old) [%] | knock-down (Anopheles stephensi [3]; LDPE, polymer 6 to 8 weeks old) [%] | knock-down (Anopheles stephensi [3]; PP, polymer 4 to 6 weeks old) [%] | knock-down (Anopheles stephensi [3]; PP, polymer 6 to 8 weeks old) [%] | knock-down (Aedes aegypti [4]; HDPE) [%] | knock-down (Aedes aegypti [4]; LDPE) [%] | knock-down (Aedes aegypti [4]; PP) [%] | Knockdown (An. Arabiensis Ndjamina) [%] | mortality at 2 ppm (An. Arabiensis Ndjamina) [%] | Knockdown (An. stephensi [5]) [%] | mortality at 2 ppm (An. stephensi [5]) [%] | Knockdown (An. Gambiae Kisumu sus [6]) [%] | mortality at 2 ppm (An. Gambiae Kisumu sus [6]) [%] | Knockdown (Ae. Aegypti New Orleans) [%] | mortality at 2 ppm (Ae. Aegypti New Orleans) [%] | Knockdown (An. Gambiae Tiassalé [7]) [%] | also measured
CCC(=N\OC)/C(C)=N/OCc1ccccc1/C(=C\OC)C(=O)OC [Compound 4, Methyl(E)-3-methoxy-2-[2-[[(E)-[(2E)-2-methoxyimino-1-methyl-butylidene]amino]-oxymethyl]phenyl]prop-2-enoate] | 98 | 78 | 93 | 77 | 87 | 70 | 100 | 90 | 53 | 63 | 63 | 100 | 100 | 95 | 100 | 67 | 95 | 75 | 100 | 70 | mortality at 2 ppm (An. Gambiae Tiassalé [7]): 100%; Knockdown (Ae. aegypti Caymon): 45%; mortality at 2 ppm (Ae. aegypti Caymon): 90%; Knockdown (An. Gambiae Kisumu rdl): 30%; mortality at 2 ppm (An. Gambiae Kisumu rdl): 100%; Knockdown (An. Arabiensis Moz sus): 0%; mortality at 2 ppm (An. Arabiensis Moz sus): 95%; Knockdown (%) at 15 mins (An. stephensi [8]): 10%; Knockdown (%) at 60 mins (An. stephensi [8]): 100%; mortality at 20 ppm (An. stephensi [8]): 80%; Knockdown (%) at 15 mins (An. Gambiae Kisumu sus [9]): 48%; Knockdown (%) at 60 mins (An. Gambiae Kisumu sus [9]): 100%; mortality at 20 ppm (An. Gambiae Kisumu sus [9]): 100%; Knockdown (%) at 15 mins (An. Gambiae Tiassalé [10]): 17%; Knockdown (%) at 60 mins (An. Gambiae Tiassalé [10]): 96%; mortality at 20 ppm (An. Gambiae Tiassalé [10]): 77%; pest or weed control at 20 ppm [11]: 100%; mortality at 20 ppm [11]: 100%; pest or weed control at 20 ppm [12]: 80%; mortality at 20 ppm [12]: 100%
CO/C=C(/C(=O)OC)c1ccccc1Oc1nnc(C(F)(F)F)s1 [Compound 6, Methyl (E)-3-methoxy-2-[2-[[5-(trifluoromethyl)-1,3,4-thiadiazol-2-yl]oxy]phenyl]-prop-2-enoate] | 98 | 66 | 87 | 100 | 97 | 100 | 100 | 90 | 87 | 100 | 83 | 100 | 100 | 100 | 100 | 86 | 100 | 95 | 100 | 84 | mortality at 2 ppm (An. Gambiae Tiassalé [7]): 94%; Knockdown (Ae. aegypti Caymon): 5%; mortality at 2 ppm (Ae. aegypti Caymon): 63%; Knockdown (An. Gambiae Kisumu rdl): 78%; mortality at 2 ppm (An. Gambiae Kisumu rdl): 89%; Knockdown (An. Arabiensis Moz sus): 90%; mortality at 2 ppm (An. Arabiensis Moz sus): 100%; Knockdown (%) at 15 mins (An. stephensi [8]): 83%; Knockdown (%) at 60 mins (An. stephensi [8]): 100%; mortality at 20 ppm (An. stephensi [8]): 100%; Knockdown (%) at 15 mins (An. Gambiae Kisumu sus [9]): 100%; Knockdown (%) at 60 mins (An. Gambiae Kisumu sus [9]): 100%; mortality at 20 ppm (An. Gambiae Kisumu sus [9]): 100%; Knockdown (%) at 15 mins (An. Gambiae Tiassalé [10]): 93%; Knockdown (%) at 60 mins (An. Gambiae Tiassalé [10]): 98%; mortality at 20 ppm (An. Gambiae Tiassalé [10]): 91%; pest or weed control at 20 ppm [11]: 100%; mortality at 20 ppm [11]: 100%; pest or weed control at 20 ppm [12]: 100%; mortality at 20 ppm [12]: 100%
